Assays:
[1] = system: Wnt activity (SW480 colon carcinoma cells stably expressing the Sp5-Luc reporter gene); test: Sp5-Luc reporter gene screening assay for Wnt activity in SW480 cells; format: cell-based; conditions: Homo sapiens, 42 h incubation, luminescence
How it was run: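 SW480 cells stably carrying an Sp5 promoter (eight TCF/LEF sites)-luciferase reporter were plated overnight in 10% FCS medium. BrightGlo luminescence was normalised to DMSO wells, and IC50 was obtained by four-parameter fit.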

[2] = system: primary human fibroblasts derived from IPF patients (LL29 cells); test: Inhibition of fibrosis (αSMA) in TGF-β1 treated primary human fibroblasts from IPF patients; format: cell-based; conditions: Fibroblast, 96 h, TGF-β1 20 ng/mL, 4 days, % αSMA positive cells
How it was run: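 IPF patient-derived LL29 lung fibroblasts in 1% FBS were treated with compound (11 points, 10 μM to 1.87 nM, 0.1% DMSO) and then 20 ng/mL TGF-β1 for 4 days at 37° C. Fraction of SYTOX-negative cells positive for αSMA was quantified by immunofluorescence imaging and normalized to TGF-β1 controls. EC50 came from non-linear regression over triplicate wells.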

SMILES: c1cc(-c2ccoc2)c2nc(-c3n[nH]c4ccc(-c5cncc(CNCC6CCCC6)c5)cc34)[nH]c2n1 [Compound 310, 1-Cyclopentyl-N-((5-(3-(7-(furan-3-yl)-3H-imidazo[4,5-b]pyridin-2-yl)-1H-indazol-5-yl)pyridin-3-yl)methyl)methanamine]
- IC50 [1]: 1270 nM
- EC50 [2]: 9.99 nM

SMILES: CCC(=O)Nc1cncc(-c2ccc3[nH]nc(-c4nc5c(-c6cccs6)ccnc5[nH]4)c3c2)c1 [Compound 313, N-(5-(3-(7-(Thiophen-2-yl)-3H-imidazo[4,5-b]pyridin-2-yl)-1H-indazol-5-yl)pyridin-3-yl)propionamide]
- IC50 [1]: 2 nM
- EC50 [2]: 0.027 nM

SMILES: CC(C)(C)C(=O)Nc1cncc(-c2ccc3[nH]nc(-c4nc5c(-c6cccs6)ccnc5[nH]4)c3c2)c1 [Compound 320, N-(5-(3-(7-(Thiophen-2-yl)-3H-imidazo[4,5-b]pyridin-2-yl)-1H-indazol-5-yl)pyridin-3-yl)pivalamide]
- IC50 [1]: 8.8 nM
- EC50 [2]: 0.016 nM

SMILES: CN(C)Cc1cncc(-c2ccc3[nH]nc(-c4nc5c(-c6cccs6)ccnc5[nH]4)c3c2)c1 [Compound 325, N,N-Dimethyl-1-(5-(3-(7-(thiophen-2-yl)-3H-imidazo[4,5-b]pyridin-2-yl)-1H-indazol-5-yl)pyridin-3-yl)methanamine]
- IC50 [1]: 932 nM
- EC50 [2]: 0.04 nM

SMILES: O=C(Nc1cncc(-c2ccc3[nH]nc(-c4nc5c(-c6cccs6)ccnc5[nH]4)c3c2)c1)C1CC1 [Compound 331, N-(5-(3-(7-(Thiophen-2-yl)-3H-imidazo[4,5-b]pyridin-2-yl)-1H-indazol-5-yl)pyridin-3-yl)cyclopropanecarboxamide]
- IC50 [1]: 34.7 nM
- EC50 [2]: 0.155 nM

SMILES: O=C(Nc1cncc(-c2ccc3[nH]nc(-c4nc5c(-c6cccs6)ccnc5[nH]4)c3c2)c1)C1CCCC1 [Compound 333, N-(5-(3-(7-(Thiophen-2-yl)-3H-imidazo[4,5-b]pyridin-2-yl)-1H-indazol-5-yl)pyridin-3-yl)cyclopentanecarboxamide]
- IC50 [1]: 6.3 nM
- EC50 [2]: 0.009 nM

SMILES: FC1(F)CCN(Cc2cncc(-c3ccc4[nH]nc(-c5nc6c(-c7cccs7)ccnc6[nH]5)c4c3)c2)C1 [Compound 337, 2-(5-(5-((3,3-Difluoropyrrolidin-1-yl)methyl)pyridin-3-yl)-1H-indazol-3-yl)-7-(thiophen-2-yl)-3H-imidazo[4,5-b]pyridine]
- IC50 [1]: 15 nM
- EC50 [2]: 1.31 nM

SMILES: Fc1ccc(-c2ccnc3[nH]c(-c4n[nH]c5ccc(-c6cncc(CN7CCCC7)c6)cc45)nc23)s1 [Compound 352, 7-(5-Fluorothiophen-2-yl)-2-(5-(5-(pyrrolidin-1-ylmethyl)pyridin-3-yl)-1H-indazol-3-yl)-3H-imidazo[4,5-b]pyridine]
- IC50 [1]: 13.2 nM
- EC50 [2]: 0.125 nM

SMILES: Cc1ccc(-c2ccnc3[nH]c(-c4n[nH]c5ccc(-c6cncc(N)c6)cc45)nc23)s1 [Compound 367, 5-(3-(7-(5-Methylthiophen-2-yl)-3H-imidazo[4,5-b]pyridin-2-yl)-1H-indazol-5-yl)pyridin-3-amine]
- IC50 [1]: 4.3 nM
- EC50 [2]: 0.314 nM

SMILES: Cc1ccc(-c2ccnc3[nH]c(-c4n[nH]c5ccc(-c6cncc(NC(=O)C(C)(C)C)c6)cc45)nc23)s1 [Compound 372, N-(5-(3-(7-(5-Methylthiophen-2-yl)-3H-imidazo[4,5-b]pyridin-2-yl)-1H-indazol-5-yl)pyridin-3-yl)pivalamide]
- IC50 [1]: 0.6 nM
- EC50 [2]: 0.009 nM

SMILES: Cc1ccc(-c2ccnc3[nH]c(-c4n[nH]c5ccc(-c6cncc(CN7CCCCC7)c6)cc45)nc23)s1 [Compound 379, 7-(5-Methylthiophen-2-yl)-2-(5-(5-(piperidin-1-ylmethyl)pyridin-3-yl)-1H-indazol-3-yl)-3H-imidazo[4,5-b]pyridine]
- IC50 [1]: 76 nM
- EC50 [2]: 0.405 nM

SMILES: Cc1ccc(-c2ccnc3[nH]c(-c4n[nH]c5ccc(-c6cncc(NC(=O)C7CCCC7)c6)cc45)nc23)s1 [Compound 385, N-(5-(3-(7-(5-Methylthiophen-2-yl)-3H-imidazo[4,5-b]pyridin-2-yl)-1H-indazol-5-yl)pyridin-3-yl)cyclopentanecarboxamide]
- IC50 [1]: 19.2 nM
- EC50 [2]: 0.084 nM

SMILES: Cc1ccncc1-c1ccc2[nH]nc(-c3nc4c(-c5cc(F)cc(CNS(C)(=O)=O)c5)ccnc4[nH]3)c2c1 [Compound 421, N-(3-fluoro-5-(2-(5-(4-Methylpyridin-3-yl)-1H-indazol-3-yl)-3H-imidazo[4,5-b]pyridin-7-yl)benzyl)methanesulfonamide]
- IC50 [1]: 6.1 nM
- EC50 [2]: 0.045 nM

SMILES: CS(=O)(=O)NCc1cc(F)cc(-c2ccnc3[nH]c(-c4n[nH]c5ccc(-c6cncc(CNCc7ccccc7)c6)cc45)nc23)c1 [Compound 439, N-(3-(2-(5-(5-((Benzylamino)methyl)pyridin-3-yl)-1H-indazol-3-yl)-3H-imidazo[4,5-b]pyridin-7-yl)-5-fluorobenzyl)methanesulfonamide]
- IC50 [1]: 354 nM
- EC50 [2]: 0.009 nM

SMILES: CCNCc1cncc(-c2ccc3[nH]nc(-c4nc5c(-c6cc(F)cc(NCCN(C)C)c6)ccnc5[nH]4)c3c2)c1 [Compound 448, N^1-(3-(2-(5-(5-((Ethylamino)methyl)pyridin-3-yl)-1H-indazol-3-yl)-3H-imidazo[4,5-b]pyridin-7-yl)-5-fluorophenyl)-N^2,N^2-dimethylethane-1,2-diamine]
- IC50 [1]: 203 nM
- EC50 [2]: 0.701 nM

SMILES: CC(C)Nc1cncc(-c2ccc3[nH]nc(-c4nc5c(-c6cc(F)cc(NCCN(C)C)c6)ccnc5[nH]4)c3c2)c1 [Compound 454, N^1-(3-Fluoro-5-(2-(5-(5-(isopropylamino)pyridin-3-yl)-1H-indazol-3-yl)-3H-imidazo[4,5-b]pyridin-7-yl)phenyl)-N^2,N^2-dimethylethane-1,2-diamine]
- IC50 [1]: 51.7 nM
- EC50 [2]: 0.019 nM

SMILES: CN(C)CCNc1cc(F)cc(-c2ccnc3[nH]c(-c4n[nH]c5ccc(-c6cncc(CNCC7CCCC7)c6)cc45)nc23)c1 [Compound 466, N^1-(3-(2-(5-(5-(((Cyclopentylmethyl)amino)methyl)pyridin-3-yl)-1H-indazol-3-yl)-3H-imidazo[4,5-b]pyridin-7-yl)-5-fluorophenyl)-N^2,N^2-dimethylethane-1,2-diamine]
- IC50 [1]: 442 nM
- EC50 [2]: 1.11 nM

SMILES: Fc1cccc(-c2ccnc3[nH]c(-c4n[nH]c5ccc(C6CCNCC6)cc45)nc23)c1 [Compound 1873, 7-(3-Fluorophenyl)-2-(5-(piperidin-4-yl)-1H-indazol-3-yl)-3H-imidazo[4,5-b]pyridine]
- IC50 [1]: 3270 nM
- EC50 [2]: 0.037 nM

SMILES: Fc1cccc(-c2ccnc3[nH]c(-c4n[nH]c5ccc(C6=CCNCC6)cc45)nc23)c1 [Compound 1874, 7-(3-Fluorophenyl)-2-(5-(1,2,3,6-tetrahydropyridin-4-yl)-1H-indazol-3-yl)-3H-imidazo[4,5-b]pyridine]
- IC50 [1]: > 1000 nM
- EC50 [2]: 0.317 nM

SMILES: Cn1cc(-c2ccc3[nH]nc(-c4nc5c(-c6cccc(F)c6)ccnc5[nH]4)c3c2)cn1 [Compound 1876, 7-(3-Fluorophenyl)-2-(5-(1-methyl-1H-pyrazol-4-yl)-1H-indazol-3-yl)-3H-imidazo[4,5-b]pyridine]
- IC50 [1]: 61 nM
- EC50 [2]: 9.99 nM

SMILES: Cc1ncc(-c2ccc3[nH]nc(-c4nc5c(-c6cccc(F)c6)ccnc5[nH]4)c3c2)n1C [Compound 1877, 2-(5-(1,2-Dimethyl-1H-imidazol-5-yl)-1H-indazol-3-yl)-7-(3-fluorophenyl)-3H-imidazo[4,5-b]pyridine]
- IC50 [1]: > 10000 nM
- EC50 [2]: 9.99 nM

SMILES: NC1CN(c2cncc(-c3ccc4[nH]nc(-c5nc6c(-c7cccc(F)c7)ccnc6[nH]5)c4c3)n2)C1 [Compound 1878, 1-(6-(3-(7-(3-Fluorophenyl)-3H-imidazo[4,5-b]pyridin-2-yl)-1H-indazol-5-yl)pyrazin-2-yl)azetidin-3-amine]
- IC50 [1]: 215 nM
- EC50 [2]: 9.99 nM

SMILES: Fc1cccc(-c2ccnc3[nH]c(-c4n[nH]c5ccc(-c6cncc(OC7CCCCC7)c6)cc45)nc23)c1 [Compound 1879, 2-(5-(5-(Cyclohexyloxy)pyridin-3-yl)-1H-indazol-3-yl)-7-(3-fluorophenyl)-3H-imidazo[4,5-b]pyridine]
- IC50 [1]: > 10000 nM
- EC50 [2]: 9.99 nM

SMILES: Fc1cccc(-c2ccnc3[nH]c(-c4n[nH]c5ccc(-c6cncc(OC7CCNCC7)c6)cc45)nc23)c1 [Compound 1880, 7-(3-Fluorophenyl)-2-(5-(5-(piperidin-4-yloxy)pyridin-3-yl)-1H-indazol-3-yl)-3H-imidazo[4,5-b]pyridine]
- IC50 [1]: 1190 nM
- EC50 [2]: 0.417 nM

SMILES: O=C(CC1CCNCC1)Nc1cncc(-c2ccc3[nH]nc(-c4nc5c(-c6cccc(F)c6)ccnc5[nH]4)c3c2)c1 [Compound 1881, N-(5-(3-(7-(3-Fluorophenyl)-3H-imidazo[4,5-b]pyridin-2-yl)-1H-indazol-5-yl)pyridin-3-yl)-2-(piperidin-4-yl)acetamide]
- IC50 [1]: 65 nM
- EC50 [2]: 0.071 nM

SMILES: COc1cncc(-c2ccc3[nH]nc(-c4nc5c(-c6cccc(F)c6)ccnc5[nH]4)c3c2)c1 [Compound 1884, 7-(3-Fluorophenyl)-2-(5-(5-methoxypyridin-3-yl)-1H-indazol-3-yl)-3H-imidazo[4,5-b]pyridine]
- IC50 [1]: > 10000 nM
- EC50 [2]: 9.99 nM

SMILES: O=C(CC1CCCCC1)Nc1cncc(-c2ccc3[nH]nc(-c4nc5c(-c6cccc(F)c6)ccnc5[nH]4)c3c2)c1 [Compound 1887, 2-Cyclohexyl-N-(5-(3-(7-(3-fluorophenyl)-3H-imidazo[4,5-b]pyridin-2-yl)-1H-indazol-5-yl)pyridin-3-yl)acetamide]
- IC50 [1]: > 10000 nM
- EC50 [2]: 9.99 nM

SMILES: Fc1cccc(-c2ccnc3[nH]c(-c4n[nH]c5ccc(-c6ccncc6)cc45)nc23)c1 [Compound 1888, 7-(3-Fluorophenyl)-2-(5-(pyridin-4-yl)-1H-indazol-3-yl)-3H-imidazo[4,5-b]pyridine]
- IC50 [1]: > 10000 nM
- EC50 [2]: 9.99 nM

Reference: patent publication US10280166B2, “2-(1H-indazol-3-yl)-3H-imidazo[4,5-B]pyridine and therapeutic uses thereof” (Samumed, LLC, priority 2014, dated 2019)
